# Results reported in patent US20160200769A1, “Compound, Transitmycin, Effective Against Bacterial and Viral Pathogens” (INDIAN COUNCIL OF MEDICAL RESEARCH, priority 2013, published 2016).
# *1 amine or outer side, *2 acyl side, *3 side chain or, on linkers, in order; H or OH if unused. Where a SMILES comes first, the peptide text is derived from it. Bridges are numbered along the chain shown (N, C = ends). Roman numbers before positions name the chains, in order. [ ]: non-standard residue; d: D form. Actinocin(1to9) = Cc1c2oc3c(C)ccc(C(=O)[*:2])c3nc-2c(C(=O)[*:1])c(N)c1=O; Pro(4-oxo) = O=C1CN[C@H](C(=O)O)C1; NMeV = CN[C@H](C(=O)O)C(C)C; Sar = CNCC(=O)O
# Test system: M. tuberculosis SHRE resistant
# Test: microbe, parasite or virus in culture
# Type: cell-based
# Conditions: Mycobacterium tuberculosis
structure (smiles),measurement,value
"Cc1c2oc3c(C)ccc(C(=O)N[C@@H]4C(=O)N[C@@H](C(C)C)C(=O)N5CCC[C@H]5C(=O)N(C)CC(=O)N(C)[C@@H](C(C)C)C(=O)O[C@@H]4C)c3nc-2c(C(=O)N[C@@H]2C(=O)N[C@@H](C(C)C)C(=O)N3CC(=O)C[C@H]3C(=O)N(C)CC(=O)N(C)[C@@H](C(C)C)C(=O)O[C@@H]2C)c(N)c1=O [compound of formula (I), Transitmycin] (I: TV[Pro(4-oxo)][Sar][NMeV] / II: TVP[Sar][NMeV]; ester I:1-I:C, II:1-II:C; linker I:N-II:N via Actinocin(1to9))",MIC,6.25 µg/mL
